Reference: ChEMBL document CHEMBL5728088, “Aryl sulfonohydrazides” (2020)

Experiment: Biochemical Assay: Active Moz protein was expressed as N-terminal fusion protein with a His6 tag in BL21 E. coli cells. Protein purification was performed via nickel-immobilized metal ion affinity chromatography followed by gel filtration. […] The reactions were performed in assay buffer (100 mM Tris-HCl, pH 7.8, 15 mM NaCl, 1 mM EDTA, 0.01% Tween-20, 1 mM Dithiothreitol, and 0.02% m/v chicken egg white albumin). Reactions were set up with 0.4 μM Acetyl coenzyme A (AcCoA), 50 nM N-terminal histone H4 peptide (sequence […]-GGK-biotin), 10 nM MOZ enzyme, and an acetyl-lysine specific antibody (final dilution 1:10000). 11-point dilution series of the compounds of the invention were prepared in DMSO; a volume of 100 nL was transferred using a pin tool into assay plates containing substrates, before adding enzyme to start the reaction. Positive (no compound) and negative (AcCoA omitted) control reactions were included on the same plates and received the same amount of DMSO as the compound treated wells. After adding all reagents, the plates were sealed with adhesive seals and incubated for 90 minutes at room temperature. An additional 4 μL of assay buffer containing AlphaScreen® Protein A acceptor beads and Streptavidin donor beads (PerkinElmer, Waltham, Mass.) to a final concentration of 4 μg/mL was then added. […]

IC50	SMILES
13.1 µM	O=C(NNS(=O)(=O)c1ccc2ccccc2c1)c1cccc(-c2cccnc2)c1
0.839 µM	O=C(NNS(=O)(=O)c1ccccc1F)c1cc(-c2ccc(F)cc2)ccc1F
